# Entries after “also recorded” stand apart in the source; their conditions may differ.
# Experiments:
# [1] = system: INS-1 (832/13) cells; assay: Glucose stimulated insulin secretion (GSIS) in INS-1 (832/13) cells; format: cell-based, rat; details: 0.5 mM palmitate 24 h, AvoB 25 μM, ETO 100 μM
# Method: To measure glucose stimulated insulin secretion (GSIS) in INS-1(832/13) cells a standard protocol was adopted. […] After treatments were complete, cell media was replaced with KRB (Krebs-Ringer Bicarbonate) buffer. Cells were then challenged with 3 mM glucose for 2 h in KRB buffer after which 500 μL KRB buffer was collected and frozen in −80° C. until analysis. For another 2 h, cells were challenged with 16 mM glucose after which 500 μL KRB was collected and frozen in −80° C. until analysis. The amount of insulin released into the KRB buffer was determined by an ELISA kit (Millipore, Rat/Mouse Insulin Detection kit). Data was normalized for cellular protein content, as determined by the Micro-BCA Protein Assay kit. The glucose-dependent insulin secretory index (GSIS16/3), defined as the ratio between the insulin secretion at 16 mM (stimulatory, surrogate to postprandial glucose levels) and 3 mM (basal, surrogate to fasting glucose levels) glucose was also calculated.
# [2] = system: INS-1 (832/13) cells; assay: Mitochondrial ROS (MitoSOX) and membrane potential (JC-1) in INS-1 (832/13) cells; format: cell-based, rat; details: 25 μM AvoB, 0.5 mM palmitate, 24 h
# Method: For all ROS studies, INS-1 (832/13) cells and C2C12 myotubes were treated with or without palmitate and FAO inhibitors for 24 h in low glucose cell culture media as described for the FAO assay. After treatment, cells were trypsinized and re-suspended in PBS containing 5 μM of the fluorescent dye MitoSOX® (Molecular Probes, Invitrogen) and allowed to incubate for 5-15 minutes in a humidified atmosphere containing 5% CO2 at 37° C. Cells were then washed in PBS, placed in a 96 well plate and fluorescence was measured by flow cytometry. ROS was quantified by normalizing the mean fluorescence values of live gated cells to vehicle control. Mitochondrial membrane potential (MMP) in INS-1 (832/13) and C2C12 myotubes was measured using the cationic fluorescent dye JC-1 (Molecular Probes). […] JC-1 fluoresces green in the cytosol where it exists as a monomer, after entering the mitochondria JC-1 monomers form J aggregates and fluoresce red, thus the red/green fluorescence ratio is used to determine MMP. […] Cells were then washed in PBS, placed in a 96 well plate and fluorescence was measured by flow cytometry. MMP was quantified by normalizing the mean fluorescence values of live gated cells to vehicle control. […] Cells were treated, washed and collected as described and incubated with 0.35 μM NAO and green fluorescence was measured using flow cytometry. […]
# [3] = system: C2C12 myotubes; assay: High resolution respirometry in C2C12 myotubes; format: cell-based, mouse; details: 25 μM AvoB
# Method: Cells treated with test compounds for 24 h were trypsinized, counted, and resuspended in phosphate buffer saline (PBS). High-resolution O2 consumption measurements were conducted in 2 ml of respiration medium (PBS, pH 7.5, stir speed 750 rpm) using the Oroboros Oxygraph-2k (Oroboros Instruments, Corp., Innsbruck, Austria) set to 37° C. with a gain of 2 in both chambers. Briefly, after the injection of 5 million treated INS-1 (832/13) cells or C2C12 myotubes per chamber, basal respiration was measured once steady-state respiratory flux was obtained; this represents coupled respiration fueled by available substrates from the incubation with test compounds. Uncoupled respiration was then measured following addition of the ATP synthase inhibitor oligomycin (0.25 μM). This was followed by measuring maximal respiratory rate by stepwise titration of carbonyl cyanide p-trifluoromethoxy phenyl hydrazone (FCCP; within 0.1-0.25 μM) in the presence of 1 mmol/L pyruvate. […] Data was recorded with DatLab software (Oroboros Instruments, Innsbruck, Austria), oxygen consumption at each step of the protocol was normalized to vehicle control and illustrated in histograms. For all HRR protocols, cell viability was determined after trypsinization and also after end of HRR runs via trypan blue cell staining and counting using a hemocytometer. […]
# [4] = system: INS-1 (832/13) cells; assay: Glucose oxidation (D-[14C(U)]-glucose) in INS-1 (832/13) cells; format: cell-based, rat; details: 25 μM AvoB, lipotoxic conditions, vs palmitate only
# Method: C2C12 myotubes and INS-1 (832/13) cells treated as in the FAO assays described above and then incubated with D-[^14C(U)]-glucose (0.58 μC/mL) and unlabeled glucose (final glucose concentration 200 μM) for 4 h subsequent to which [^14C]—CO2 (representing complete glucose oxidation) and ASMs (representing incomplete glucose oxidation) were captured and quantified as described in the FAO method. For C2C12 myotubes, glucose oxidation and uptake was measured with and without a 30 min pre-incubation with 100 nM insulin to determine basal and insulin-mediated glucose oxidation or uptake, respectively.
# [5] = system: C2C12 myotubes; assay: Cellular ATP content in C2C12 myotubes; format: cell-based, mouse; details: 0.5 mM palmitate 24 h, AVO 25 μM, DCA 1 mM, TRI 25 μM
# Method: Total cellular ATP content was determined using the ATP bioluminescent assay kit (Calbiochem, 119107). Briefly, cells were seeded in white walled 96-well plates (1.2×10^4 cells/well for INS-1 and 2×10^4 cells/well for C2C12) and treated for 24 h (C2C12 cells were differentiated for 5 days prior to treatments whereas INS-1 cells were treated 24 h after seeding). After treatment, culture media was removed, and cells were lysed with nucleotide releasing buffer with gentle shaking for 5 min. ATP monitoring enzyme was then added to cell lysates and plates and luminescence was read in a Biotek Synergy HT spectrophotometer (Biotek; Winooski, VT).
# [6] = system: INS-1 (832/13) cells; assay: High resolution respirometry in INS-1 (832/13) cells; format: cell-based, rat
# Method: Cells treated with test compounds for 24 h were trypsinized, counted, and resuspended in phosphate buffer saline (PBS). High-resolution O2 consumption measurements were conducted in 2 ml of respiration medium (PBS, pH 7.5, stir speed 750 rpm) using the Oroboros Oxygraph-2k (Oroboros Instruments, Corp., Innsbruck, Austria) set to 37° C. with a gain of 2 in both chambers. Briefly, after the injection of 5 million treated INS-1 (832/13) cells or C2C12 myotubes per chamber, basal respiration was measured once steady-state respiratory flux was obtained; this represents coupled respiration fueled by available substrates from the incubation with test compounds. Uncoupled respiration was then measured following addition of the ATP synthase inhibitor oligomycin (0.25 μM). This was followed by measuring maximal respiratory rate by stepwise titration of carbonyl cyanide p-trifluoromethoxy phenyl hydrazone (FCCP; within 0.1-0.25 μM) in the presence of 1 mmol/L pyruvate. Finally, respiration was inhibited by addition of rotenone (0.5 μM; complex I inhibitor) to obtain extra-mitochondrial residual oxygen consumption. Data was recorded with DatLab software (Oroboros Instruments, Innsbruck, Austria), oxygen consumption at each step of the protocol was normalized to vehicle control and illustrated in histograms. For all HRR protocols, cell viability was determined after trypsinization and also after end of HRR runs via trypan blue cell staining and counting using a hemocytometer. No significant differences in cell viability between control and treated cells were observed.
# Additionally, to indirectly assess metabolic flexibility, cells were treated the same way as described, collected and subjected to a 15 min treatment of 10 mM D-glucose before being washed and injected into the respirometer; these experiments were done to assess if cells incubated in low glucose/high fat conditions for 24 h can easily switch to glucose utilization upon acute incubation with D-glucose.
substance,measurement,setting,value
avocatin B [AvoB],Glucose stimulated insulin secretion (GSIS),[1],rescued; also recorded: GSIS was higher
same,"Mitochondrial membrane potential (MMP, JC-1)",[2],lowers palmitate-induced increases
same,Mitochondrial superoxide levels (MitoSOX Red),[2],lowers palmitate-induced increases in mitochondrial superoxide levels
same,Glucose oxidation by HRR after 10 mM glucose (metabolic flexibility),"[3]; 0.25 mM palmitate 24 h, then 10 mM glucose 15 min",increased
same,"Palmitate supported respiration (OCR, HRR)","[3]; 0.25 mM palmitate-BSA/1 mM L-carnitine, 24 h",inhibited palmitate supported basal and maximal-uncoupled respiration
same,Glucose oxidation (D-[14C(U)]-glucose to CO2),[4],greater glucose oxidation compared to cells treated with palmitate only
same,Total cellular ATP content,[5],restored cellular ATP content to that of control cells
same,"Respiration after 10 mM glucose challenge (HRR, metabolic flexibility)","[6]; 25 μM AvoB, 0.25 mM palmitate 24 h, then 10 mM glucose 15 min, vs palmitate-only",increased basal and maximal respiration compared to the palmitate-only control
same,"Palmitate supported respiration (OCR, HRR)","[6]; 25 μM AvoB, 0.25 mM palmitate-BSA/1 mM L-carnitine, 24 h",inhibited palmitate supported basal and maximal-uncoupled respiration
same,Concentration imparting FAO inhibition relative to etomoxir,[6]; AvoB 25 μM vs etomoxir 100 μM,four-fold lower than etomoxir
